From PMC11668526, “The satiety hormone cholecystokinin gates reproduction in fish by controlling gonadotropin secretion” (eLife, 2024)
Entries after “also recorded” stand apart in the source; their conditions may differ.

Legend:
LH cells = test: Ex vivo calcium imaging (RCaMP2), LH cells; assay type: cell-based, zebrafish
Description: (§1) Overall, whereas GnRH elicited a response in 95% of LH cells, only 56% of FSH cells responded to the treatment in the same fish (Figure 3E).
(§2) To functionally test the effect of CCK on gonadotroph activity, we applied the peptide (300 μl of 30 μg/ml CCK, 78.74 µM) to our ex vivo preparation and monitored the calcium response of the cells. […] The calcium response in FSH cells was highly synchronized (mean max cross-correlation coefficient, 0.7 ± 0.04; Figure 4B; Figure 4—figure supplement 1B). By contrast, the response of LH cells to CCK application was characterized by low mean of max cross-correlation coefficient values (0.43 ± 0.05; Figure 4B; Figure 4—figure supplement 1B).
(§3) Adult fish were euthanized using ice-cold water and decapitated. The head was transferred to ice-cold ACSF (124 mM NaCl, 3 mM KCl, 2 mM CaCl2, 2 mM MgSO4, 1.25 mM NaH2PO4, 26 mM NaHCO3, and 10 mM glucose (pH 7.2)) perfused with 5% CO2 and 95% O2. The heads were further dissected under a stereomicroscope. The ventral side of the head, including the jaw, gills, and mucus, was removed using fine forceps and microscissors, the optic nerves were cut and the eyes were removed. Next, the bone at the base of the skull that covers the pituitary (sella turcica) was removed using fine forceps. The head was placed in a dedicated chamber (Figure 3B) and stabilized with a slice anchor. The chamber had one inlet and one outlet, allowing for a constant flow of ACSF at a rate of 1 ml/min, and an additional inlet that was placed in proximity to the tissue for injections of stimuli. The total volume of ACSF in the chamber was 3 ml.
Imaging was performed in an inverted confocal fluorescent microscope (Leica SP8). R-CaMP2 activity was imaged at 4–10 Hz using the resonant scanner. The laser wavelength was 540 nm and the emission band was 630 nm. Images were taken using the 20x objective. Each imaging session lasted 10 min. Before and after each session, the tissue was imaged once for GFP (excitation, 488 nm, and emission, 530 nm) and R-CaMP2 (540 nm and 590 nm) in two separate channels. Images were processed using the Fiji program ([Schindelin et al., 2012]) for resolution using the Gaussian Blur filter and motion correction using the moco plugin ([Dubbs et al., 2016]).
(§4) To measure hormone secretion in response to salmon GnRH analogue (D-Ala6,Pro9-Net)-mammalian GnRH (Bachem Inc, Torrance, CA) or zebrafish CCK [D-Y-[SO3H]-L-G-W-M-D-F, synthesized by GL Biochem] stimulation, the medium was collected through the chamber outlet during the entire imaging session (10 ml per session in total). Each pituitary was imaged three times for 10 min: before, during, and after stimulation. The stimulus was applied manually as a pulse of 300 μl of 30 μg/μl (78.74 µM) peptide during the first 30 s of the imaging session. Hormones were measured in the fractions before and after stimulation using ELISA developed for common carp, which was established in the Levavi-Sivan lab using recombinant carp gonadotropins produced in yeast, and had been previously shown to be suitable for zebrafish ([Whitlock et al., 2019]).
Tissue viability was validated by monitoring the morphology and activity of the cells, looking at granulation and calcium changes. This specific preparation was also viable 2 hr after dissection, when all the cells responded to the different stimuli.
A composite of GFP-positive and RCaMP-positive cells was created to distinguish between LH and FSH cells. […]

FSH cells = test: Ex vivo calcium imaging (RCaMP2), FSH cells; assay type: cell-based, zebrafish; settings: 78.74 µM
Description: as §1, §2
as §3, with “The chamber had one inlet and one outlet, allowing for a constant flow of ACSF at a rate of 1 ml/min, and an additional inlet that was placed in proximity to the tissue for injections of stimuli. The total volume of ACSF in the chamber was 3 ml.” left out
as §4, with “Each pituitary was imaged three times for 10 min: before, during, and after stimulation. The stimulus was applied manually as a pulse of 300 μl of 30 μg/μl (78.74 µM) peptide during the first 30 s of the imaging session.” left out, “2019]). […]” for “2019]).”

LH secretion = test: Ex vivo LH secretion into perfused medium, ELISA; assay type: cell-based, zebrafish; settings: GnRH pulse 300 μl of 30 μg/μl, n=5, paired t-test
Description: (§5) The calcium response observed in LH and FSH cells upon GnRH and CCK stimulation indicates a preferential stimulatory effect of the neuropeptides on each cell type. The effect of these neuropeptides on LH and FSH secretion was examined in order to determine the functional outcome of the stimulation. For that, we collected the medium perfused through our ex vivo system (Figure 3A and B) during our calcium imaging assays. The medium was subsequently used to measure LH and FSH secretion using a specific ELISA validated for zebrafish GTHs ([Hollander-Cohen et al., 2018]).
(§6) Adult fish were euthanized using ice-cold water and decapitated. […]
as §4, with “Each pituitary was imaged three times for 10 min: before, during, and after stimulation. The stimulus was applied manually as a pulse of 300 μl of 30 μg/μl (78.74 µM) peptide during the first 30 s of the imaging session.” left out

FSH secretion = test: Ex vivo FSH secretion into perfused medium, ELISA; assay type: cell-based, zebrafish; settings: GnRH pulse 300 μl of 30 μg/μl (78.74 µM), n=5, paired t-test
Description: as §5, §6
as §4, with “Each pituitary was imaged three times for 10 min: before, during, and after stimulation. The stimulus was applied manually as a pulse of 300 μl of 30 μg/μl (78.74 µM) peptide during the first 30 s of the imaging session.” left out

FSH plasma levels = test: In vivo injection: FSH plasma levels (ELISA); parameters: species or system zebrafish; settings: intraperitoneal, 100 ng/g body weight, 2 hr; n=10; Fig 5C and D
Description: (§7) Six-month-old zebrafish (five males and five females) were injected intraperitoneally with the following: (1) fish CCK peptide [(D-Y[SO3H]-L-G-W-M-D-F-NH (2), synthesized by GL Biochem] at a concentration of 10 ng/g or 100 ng/g body weight, 2) salmon GnRH analogue (D-Ala6,Pro9-Net)-mammalian GnRH (Bachem Inc, Torrance, CA) at a concentration of 100 ng/g body weight, (3) similar volumes of saline. Two hours post-injection, the fish were sedated using MS-222, bled from the heart as previously described ([Biran et al., 2012]), and decapitated. Pituitaries were dissected under a stereomicroscope and placed in Total RNA Isolation Reagent (Trizol). From each fish, between 15 μl and 20 μl of blood was collected. The blood was centrifuged at 970 × g 30 min and the plasma was separated and stored at −20 °C. LH and FSH expression in the pituitary was measured using real-time PCR (see Figure 5—source data 1 for primer list). RNA extraction, reverse transcription of RNA, and real-time PCR were carried out as previously described ([Biran et al., 2008]). FSH secretion was measured in the plasma using ELISA for common carp, which was established in the Levavi Sivan lab using recombinant carp gonadotropins from in the yeast, and had been previously shown to be suitable for zebrafish ([Hollander-Cohen et al., 2018]).

[1] = test system: LH expression in the pituitary; test: In vivo injection: LH expression in pituitary (real-time PCR); parameters: species or system zebrafish; settings: intraperitoneal, 100 ng/g body weight, 2 hr, n=10
Description: as §7

[2] = test system: three types of GnRH receptors that exist in fish; parameters: method as in Zohar and Mylonas, 2001; settings: ref Zohar and Mylonas, 2001; cited from earlier work
[3] = test system: FSH cells in pituitary cell culture; settings: ref Lin and Ge, 2009; cited from earlier work
Description: GnRH has long been considered the common stimulator of gonadotropin secretion in vertebrates. However, accumulating evidence for GnRH-independent FSH secretion in several mammalian species has questioned the regulatory role of GnRH ([McCann et al., 2001]; [Padmanabhan et al., 1997]; [Culler and Negro-Vilar, 1987]; [Pau et al., 1991]).

(D-Ala6,Pro9-Net)-mammalian GnRH
calcium transient average half width, LH cells (LH cells; ex vivo brain-pituitary preparation, GnRH puff 78.74 µM, pH 7.2 ACSF, Fig 3-supplement 2: mean of 20 cell traces per fish, 3 females, 3 males): 48.6 s | calcium response to GnRH, LH cells (LH cells; ex vivo, GnRH 78.74 µM, n=10): synchronized increase of calcium in all luteinizing hormone (LH) cells; also recorded: strong and slow calcium rise | calcium transient average amplitude, LH cells (LH cells; ex vivo, GnRH puff 78.74 µM, Fig 3-supplement 2: mean of 20 cell traces per fish, 3 females, 3 males): 1.99 ∆F/F | percentage of cells responsive to GnRH stimulus, LH cells (LH cells; ex vivo, GnRH puff 78.74 µM, coefficient values higher than the 80 percentiles of basal values, n=10 (3 males, 7 females), p<0.001 vs FSH cells): 95% | mean of max cross-correlation coefficient of calcium traces, LH cells (LH cells; ex vivo, after GnRH puff 78.74 µM, basal 0.26 ± 0.02, n=10 (3 males, 7 females), mean ± SEM, p<0.0001): 0.66 ± 0.05 | calcium response to GnRH, FSH cells (FSH cells; GnRH 300 μl, n=10): partial increase in follicle-stimulating hormone (FSH) cells; also recorded: inconsistent response of FSH cells | percentage of cells responsive to GnRH stimulus, FSH cells (FSH cells; GnRH puff 300 μl, coefficient values higher than the 80 percentiles of basal values, same fish, n=10 (3 males, 7 females)): 56% | fish displaying an increase in cross-correlation values from the basal state, FSH cells (FSH cells; GnRH puff 300 μl, percent of fish, n=10): 50% | LH secretion response to GnRH (LH secretion): significant rise in LH secretion | FSH secretion response to GnRH (FSH secretion): not significant from the basal secretion | FSH expression and secretion response to GnRH injection (FSH plasma levels): did not reach statistical significance | LH expression in the pituitary after GnRH injection [1]: only affected LH expression in the pituitary; also recorded: Expression level increased significantly only in response to GnRH injection | binding to fish GnRH receptors [2]: effectively binds to the three types of GnRH receptors that exist in fish | FSH cells response to GnRH stimuli in pituitary cell culture [3]: lack of FSH cells response to GnRH stimuli in pituitary cell culture
